Read-outs that look alike come from different tables or passages of the source.
Key:
[1] = In vivo determination of unbound brain-to-plasma partition coefficient (Kp,uu,brain) in rats; conditions: 10 mg/kg oral; for concentration at 0.5 h / concentration at 2 h: male, Sprague-Dawley, oral, 10 mg/kg
Method: In Vivo Determination of Unbound Brain-to-Plasma Partition Coefficient (Kp,uu,brain) in Rats
Unbound brain-to-plasma partition coefficient (Kp,uu,brain) is one of the key pharmacokinetic parameter for evaluating a compound's ability to cross the blood-brain barrier (BBB) (Hammarlund-Udenaes, M.; Friden, M.; Syvanen, S.; Gupta, A. On the Rate and Extent of Drug Delivery to the Brain. Pharm. Res. 2008, 25 (8), 1737-1750).
Study populations: Animal studies are performed under protocols approved by the Covance Institutional Animal Care and Use Committee. Male Sprague-Dawley rats weighing 250-350 g are obtained from Harlan Sprague Dawley Inc. (Indianapolis, Ind.). Animals have access to food and water ad libitum before and during the study.
Dose administration: Animals each receive 10 mg/kg of the CGRP receptor antagonist compound of Example 1, administered orally in 10 ml/kg of hydroxyethylcellulose 1% w/v/polysorbate 80 0.25% v/v/Antifoam 1510-US 0.05% v/v/in purified water (probe sonicated).
Pharmacokinetic sampling: Three animals per time point are used. The blood (by cardiac puncture) and brain samples are collected at 0.5 and 2 h post dose. The blood samples are treated with K3-EDTA anticoagulant, and plasma is obtained by centrifugation at 1600 g for 10 minutes. The brain samples are weighed and homogenized, without perfusion. All samples are stored at −70° C. until analysis by LC-MS/MS to determine the concentration of the compound of Example 1 in plasma and brain at each time point.
Kp,uu,brain is calculated for each time point from the expression below where individual components are derived from a combination of in vitro and in vivo measurements carried out as described above:
[formula] where Ctotal,brain, Cu,brain, Ctotal,plasma and Cu,plasma are total and unbound brain and plasma concentrations, and fu,brain and fu,plasma are fractions unbound in brain and plasma, respectively.

[2] = molecular target: T1, hCGRP (human calcitonin gene-related peptide) receptor (Homo sapiens, UniProt O60894+Q16602); experiment: Inhibition of cAMP production by CGRP receptor antagonists (HTRF) in SK-N-MC cells; assay type: cell-based; conditions: human CGRP 0.8 nM as agonist, mean ±SEM, n=16, read-out: Kb measured at human CGRP
T1 construct: Cultured SK-N-MC neuroblastoma cells that endogenously express the hCGRP receptor (ATCC); host or cells: SK-N-MC neuroblastoma cells
T1 sequence (Q16602 23-461): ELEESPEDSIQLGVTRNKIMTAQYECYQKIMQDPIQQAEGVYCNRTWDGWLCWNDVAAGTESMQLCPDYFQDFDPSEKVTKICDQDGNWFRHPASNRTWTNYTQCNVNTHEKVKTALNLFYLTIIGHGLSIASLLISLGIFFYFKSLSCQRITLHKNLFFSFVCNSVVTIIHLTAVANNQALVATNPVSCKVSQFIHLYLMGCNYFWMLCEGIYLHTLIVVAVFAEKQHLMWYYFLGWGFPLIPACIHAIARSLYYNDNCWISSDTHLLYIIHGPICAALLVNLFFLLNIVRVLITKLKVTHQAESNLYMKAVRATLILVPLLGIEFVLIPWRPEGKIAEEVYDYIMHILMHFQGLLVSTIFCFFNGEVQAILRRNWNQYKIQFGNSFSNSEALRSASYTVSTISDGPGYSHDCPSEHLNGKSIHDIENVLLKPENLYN
T1 sequence (O60894 27-148): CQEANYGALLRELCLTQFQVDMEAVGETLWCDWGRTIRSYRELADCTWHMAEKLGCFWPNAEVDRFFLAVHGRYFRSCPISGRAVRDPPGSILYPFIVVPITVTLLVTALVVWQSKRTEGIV
Excerpt: Inhibition of cAMP Production by CGRP Receptor Antagonists
The hCGRP (human calcitonin gene-related peptide) receptor is functionally coupled to the Gas proteins. Stimulation of hCGRP results in an increased synthesis of intracellular cAMP and can be blocked by the addition of receptor antagonists. Receptor activity is thus a reflection of the amount of cAMP present within cells which can be detected using standard in vitro technology. […]
Data Analysis: The amount of intracellular cAMP is quantitated using HTRF technology (Cisbio) as per vendor instructions. […] The HTRF signal is immediately detected using an ENVISION® plate reader (Perkin-Elmer) to calculate the ratio of fluorescence at […]. […] Relative EC50 values are calculated from the top-bottom range of the concentration response curve using a four-parameter logistic curve fitting program (ACTIVITYBASE® v5.3.1.22 or GENEDATA SCREENER® v12.0.4), and Kb values are estimated as agonist-corrected IC50 values using the equation: Kb=(IC50)[1+([Agonist]/EC50)]. […]

[3] = molecular target: T2, ABCB1, Human P-Glycoprotein (Pgp) (Homo sapiens, UniProt P08183); experiment: In vitro determination of efflux by Pgp, bi-directional transport across MDCKII cells; assay type: in vitro ADME; conditions: MDCKII cells expressing human ABCB1, 5 μM substrate, 60 min
T2 construct: host or cells: MDCKII cells
T2 sequence (P08183 whole entry): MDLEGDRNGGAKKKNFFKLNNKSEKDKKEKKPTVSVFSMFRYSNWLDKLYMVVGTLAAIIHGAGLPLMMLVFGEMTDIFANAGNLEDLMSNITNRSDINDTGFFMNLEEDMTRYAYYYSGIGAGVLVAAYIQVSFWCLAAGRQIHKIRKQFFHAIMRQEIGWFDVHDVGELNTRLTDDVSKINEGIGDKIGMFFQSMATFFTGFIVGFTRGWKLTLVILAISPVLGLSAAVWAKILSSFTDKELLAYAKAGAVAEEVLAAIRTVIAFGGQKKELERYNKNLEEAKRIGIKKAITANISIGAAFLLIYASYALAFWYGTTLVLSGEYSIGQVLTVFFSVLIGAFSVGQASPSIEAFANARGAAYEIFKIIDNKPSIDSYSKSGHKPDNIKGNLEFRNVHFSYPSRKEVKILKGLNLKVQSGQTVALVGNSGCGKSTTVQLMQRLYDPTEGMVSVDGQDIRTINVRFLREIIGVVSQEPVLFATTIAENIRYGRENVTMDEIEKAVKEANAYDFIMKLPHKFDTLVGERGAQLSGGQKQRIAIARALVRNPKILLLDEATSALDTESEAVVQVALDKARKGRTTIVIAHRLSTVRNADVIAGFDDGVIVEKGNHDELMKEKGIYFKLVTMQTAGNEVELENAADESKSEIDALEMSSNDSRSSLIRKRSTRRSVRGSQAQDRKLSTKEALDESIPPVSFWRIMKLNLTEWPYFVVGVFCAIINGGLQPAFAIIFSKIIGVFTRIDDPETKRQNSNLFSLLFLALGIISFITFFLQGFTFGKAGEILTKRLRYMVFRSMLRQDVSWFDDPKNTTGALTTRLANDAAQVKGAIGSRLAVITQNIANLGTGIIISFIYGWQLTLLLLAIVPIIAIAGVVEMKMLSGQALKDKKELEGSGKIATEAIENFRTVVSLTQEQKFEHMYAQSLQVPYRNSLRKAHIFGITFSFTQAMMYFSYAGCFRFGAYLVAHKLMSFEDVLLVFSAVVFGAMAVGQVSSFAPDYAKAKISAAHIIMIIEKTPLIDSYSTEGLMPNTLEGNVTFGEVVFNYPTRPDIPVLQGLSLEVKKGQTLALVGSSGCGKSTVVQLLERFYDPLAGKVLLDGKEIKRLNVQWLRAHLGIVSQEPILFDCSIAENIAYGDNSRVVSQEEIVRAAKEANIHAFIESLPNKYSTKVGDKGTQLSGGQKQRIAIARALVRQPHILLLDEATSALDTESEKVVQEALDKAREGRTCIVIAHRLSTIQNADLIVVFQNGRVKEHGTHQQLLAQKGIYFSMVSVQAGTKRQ
Method: In Vitro Determination of Efflux by ABCB1, Human P-Glycoprotein (Pgp)
Cell Culture: MDCKII cells stably expressing human wild-type ABCB1 (Pgp) are obtained from the Netherlands Cancer Institute (Amsterdam, The Netherlands). MDCK cells are maintained as described previously (Desai et al., Mol Pharm 10:1249-1261, 2013).
Bi-directional transport across MDCK cells: The assay is essentially conducted as described previously (Desai et al., Mol Pharm 10:1249-1261, 2013). Transport is measured in both directions across uninhibited and inhibited cell monolayers using a substrate concentration of 5 μM diluted from a 10 mM DMSO stock solution (final DMSO concentration of 0.05%) and a single 60-min time interval. […] The apparent permeability coefficients (Papp) are estimated as the slope of the mass transported per 60 min relative to the total recovered mass. The basal-to-apical (B-A)/apical-to-basal (A-B) Papp ratios are calculated in the absence or presence of inhibitor in each cell line for net efflux ratio (NER).

[4] = Rat plasma and brain homogenate protein binding by equilibrium dialysis; assay type: in vitro ADME
Method: Determination of plasma and brain protein binding: Rat plasma and brain homogenate protein in vitro binding is determined using equilibrium dialysis, as described elsewhere [Zamek-Gliszczynski et al., J Pharm Sci, 101:1932-1940, 2012]. The results are reported as fraction unbound in plasma (fu,plasma) and brain (fu,brain), which are then utilized to calculate Kp,uu,brain, as described in Table 2. Rat fu,plasma and fu,brain of the compound of Example 1 are determined to be 0.277 and 0.126, respectively.

In the case of `Cc1cc(OCCc2ccc([C@@H](C)[C@]3(C)CC(=O)NC3=O)cc2)cc(C)n1` [Example 1, (3S)-3-[(1R)-1-[4-[2-[(2,6-dimethyl-4-pyridyl)oxy]ethyl]phenyl]ethyl]-3-methyl-pyrrolidine-2,5-dione], the “Unbound brain conc. (Cu,brain)” value ([1]; male Sprague-Dawley rats, 0.5 hr, using rat fu,brain 0.126, mean +/- SD) is reported as 46 ± 9 nM, the “Unbound brain conc. (Cu,brain)” value ([1]; male Sprague-Dawley rats, 2.0 hr, using rat fu,brain 0.126, mean +/- SD) is reported as 51 ± 10 nM and the concentration at 0.5 h ([1]; rat, brain, 0.5 hr, mean +/- SD, read-out: Total brain conc. (Ctotal,brain)) is reported as 365 ± 67 nM. It also gave a concentration at 0.5 h ([1]; rat, brain, 0.5 hr, using rat fu,brain 0.126, mean +/- SD, read-out: Unbound brain conc. (Cu,brain)) of 46 ± 9 nM, a concentration at 2 h ([1]; rat, brain, 2.0 hr, mean +/- SD, read-out: Total brain conc. (Ctotal,brain)) of 405 ± 83 nM and a concentration at 2 h ([1]; rat, brain, 2.0 hr, using rat fu,brain 0.126, mean +/- SD, read-out: Unbound brain conc. (Cu,brain)) of 51 ± 10 nM. For the same molecule, the concentration at 0.5 h ([1]; rat, plasma, 0.5 hr, mean +/- SD, read-out: Total plasma conc. (Ctotal,plasma)) was 497 ± 69 nM, the concentration at 0.5 h ([1]; rat, plasma, 0.5 hr, using rat fu,plasma 0.277, mean +/- SD, read-out: Unbound plasma conc. (Cu,plasma)) was 138 ± 19 nM and the concentration at 2 h ([1]; rat, plasma, 2.0 hr, mean +/- SD, read-out: Total plasma conc. (Ctotal,plasma)) was 531 ± 129 nM. For the same molecule, the concentration at 2 h ([1]; rat, plasma, 2.0 hr, using rat fu,plasma 0.277, mean +/- SD, read-out: Unbound plasma conc. (Cu,plasma)) was 147 ± 36 nM, the Kp uu at 0.5 h ([1]; rat, brain/plasma, male Sprague-Dawley rats, 0.5 hr, mean +/- SD) was 0.34 ± 0.05 and the Kp uu at 2 h ([1]; rat, brain/plasma, male Sprague-Dawley rats, 2.0 hr, mean +/- SD) was 0.35 ± 0.01. The Kb [2] was 0.31 ± 0.21 nM, the “net efflux ratio (NER) for efflux by Pgp” value [3] was 4.1 and the fraction unbound in brain (fu,brain) ([4]; rat brain homogenate) was 0.126. The fraction unbound ([4]; rat plasma, read-out: fraction unbound in plasma (fu,plasma)) was 0.277.

Reference: patent US11066386B2, “CGRP receptor antagonists” (Eli Lilly and Company, priority 2017, dated 2021)
